In patent US20030134884A1, “Neovascularization inhibitors” (priority 2000, published 2003):

Columns and labels:
[1] = tested on: Human Microvascular Endothelial Cells (HMVE); assay: human microvascular endothelial cell growth inhibitory assay (Alamar Blue); type: cell-based; settings: 72 h, cultured 3 days, 2% bovine fetal serum, Alamar Blue fluorescence, control well = 100%, read-out: IC50 (concentration showing 50% growth inhibitory activity)
Protocol: The angiogenesis inhibitory action of compound (II) and an insulin sensitizer other than compound (II) was determined by a human microvascular endothelial cell growth inhibitory assay method. Human microvascular endothelial cells [Human Microvascular Endothelial Cells (HMVE), (produced by KURABO INDUSTRIES LTD., Japan)] (2×10^4/ml medium, 0.1 ml/well) in MCDB107 medium (GIBCO, US) containing 2% bovine fetal serum was dispensed to a 96 well collagen-coated microplate (produced by SUMITOMO BAKELITE CO., LTD., Japan) and a dimethylformamide (DMF) solution containing various test compounds was diluted and added to the test group. The cells were cultured at 37° C. in 5% CO2 for 3 days. Alamar Blue was added to each well and reacted at 37° C. for 4 hr. Using a fluorometer (Fluoroskan Ascent, produced by LabSystems, US), the fluorescence intensity was measured and the cell count of the well was compared with that of control. Taking the cell count of the control well as 100%, the concentration (IC50) showing 50% growth inhibitory activity was calcualted.

Compound: Cc1c(C)c2c(c(C)c1O)CCC(C)(COc1ccc(CC3SC(=O)NC3=O)cc1)O2 (stereo not shown) [compound (B), 5[[4-[(3,4-dihydro-6-hydroxy-2,5,7,8-tetramethyl-2H-1-benzopyran-2-yl)methoxy]phenyl]methyl]-2,4-thiazolidinedione]
- IC50 [1]: 107 µM

Compound: Cc1oc(-c2ccccc2)nc1COc1ccc(CO/N=C(\CCC(=O)O)c2ccccc2)cc1 [compound (7), E-4-[4-(5-methyl-2-phenyl-4-oxazolylmethoxy)benzyloxyimino]-4-phenylbutyric acid]
- IC50 [1]: 23 µM

Compound: Cc1sc(-c2ccccc2)nc1COc1ccc(CCC[C@H]2OC(=O)NC2=O)cc1 [compound (D), (R)-(+)-5-[3-[4-[(5-methyl-2-phenyl-4-thiazolyl)methoxy]phenyl]propyl]-2,4-oxazolidinedione]
- IC50 [1]: 496 µM
- melting point: 130 to 131 °C
